Key:
[1] = tested on: BxPC3 human pancreatic cancer cell line; assay: In vitro cell viability (MTT) assay, BxPC3; assay type: cell-based; details: increasing dosages, 96 hours
Text: In the illustrated example, NIPAAM/VP/AA polymeric nanoparticles in molar ratio of 60:20:20 were used for paclitaxel encapsulation. […] Also included as control in each condition were void polymeric nanoparticle equal to the amount required for encapsulating said dose of nanopaclitaxel (white bar) and solvent (dimethylsulfoxide [DMSO], blue bar) equal to the amount required for dissolving said dose of free paclitaxel. […] Thus, nano-encapsulation of the drug is not associated with loss of drug activity. […] All assays were performed in triplicate and error bars represent standard deviations.
FIG. 9 illustrates in vitro cell viability (MTT assay) performed using the water-soluble drug gemcitabine conjugated to the acrylic acid (AA) surface reactive functional group of polymeric nanoparticle. Unlike the poorly water drugs that are encapsulated within the nanoparticle, water soluble drugs like gemcitabine can be conjugated to the nanoparticle surface, rendering this compound amenable to oral delivery. Human pancreatic cancer cell line BxPC3 is incubated with increasing dosages of either free gemcitabine (black bar), nano-gemcitabine (white bar), void polymer (grey bar), or PBS solvent (patterned bar). UT=untreated. […] All assays were performed in triplicate and means and standard deviations are plotted. […]

[2] = Solubilization in water, visual (turbidity, floating particles vs transparent solution); assay type: physicochemical; details: equivalent amounts of free and nanoparticle-encapsulated drug
[3] = Blood levels of rapamycin 2 hours after oral delivery (HPLC); assay type: in vivo, C57/B6 wild type mice; details: 15 mg/kg rapamycin or equivalent, 2 hours post delivery
Text: FIG. 10 illustrates blood levels of rapamycin following oral delivery of polymeric nanoparticles. Rapamycin was encapsulated in nanoparticles comprised of increasing order of acrylic acid (AA) percentage in the co-polymeric composition. The nanoparticles were either administered as is, or after surface PEGylation. Compared are: Control A (rapamycin suspended in water); rapamycin nanoparticle comprised of NIPAAM:VP:AA in a ratio of 60:30:10 (designated as NVA631); rapamycin nanoparticle comprised of NIPAAM:VP:AA in a ratio of 60:20:20 (designated as NVA622); rapamycin nanoparticle comprised of NIPAAM:VP:AA in a ratio of 60:10:30 (designated as NVA613); and rapamycin nanoparticle comprised of NIPAAM:MMA:AA in a ratio of 60:20:20 (designated as NMA622). The corresponding PEGylated nanoparticles (PEG-NVA-631, PEG-NVA-622, PEG-NVA-613, and PEG-NMA-622) encapsulating rapamycin are designated as shaded bars. […] Blood levels are measured by HPLC from samples obtained at 2 hours post oral delivery.
Rapamycin is a poorly water soluble drug that has low oral bioavailability. […] At 2 hours post oral administration, the mice were bled and rapamycin concentrations in the blood were determined by high performance liquid chromatography (HPLC). […]

solubility in water (appearance of solution) [2] | blood level of rapamycin [3] | SMILES | activity in cell viability assay, free vs nano-gemcitabine [1]
 |  | Nc1ccn([C@@H]2O[C@H](CO)[C@@H](O)C2(F)F)c(=O)n1 [free gemcitabine, gemcitabine] | comparable activity
essentially insoluble in water |  | CC(=O)O[C@H]1C(=O)[C@@]2(C)[C@H]([C@H](OC(=O)c3ccccc3)[C@]3(O)C[C@H](OC(=O)[C@H](O)[C@@H](NC(=O)c4ccccc4)c4ccccc4)C(C)=C1C3(C)C)[C@]1(OC(C)=O)CO[C@@H]1C[C@@H]2O [free paclitaxel, paclitaxel] | 
essentially insoluble in water | essentially undetectable | CO[C@H]1C[C@@H]2CC[C@@H](C)[C@@](O)(O2)C(=O)C(=O)N2CCCC[C@H]2C(=O)O[C@H]([C@H](C)C[C@@H]2CC[C@@H](O)[C@H](OC)C2)CC(=O)[C@H](C)/C=C(\C)[C@@H](O)[C@@H](OC)C(=O)[C@H](C)C[C@H](C)/C=C/C=C/C=C/1C [free rapamycin, rapamycin] | 
essentially insoluble in water |  | CO[C@H]1/C=C/O[C@@]2(C)Oc3c(C)c(O)c4c(O)c(c(/C=N/N5CCN(C)CC5)c(O)c4c3C2=O)NC(=O)/C(C)=C\C=C\[C@H](C)[C@H](O)[C@@H](C)[C@@H](O)[C@@H](C)[C@H](OC(C)=O)[C@@H]1C [free rifampicin, rifampicin] | 
